Holding throughout (assay type): cell-based
Test [1] deals with Ca^+2 influx in Jurkat cells (clone E6-1). The test is described as follows: Calcium influx assay (thapsigargin-stimulated, Fluo-3). Particulars: Homo sapiens; Jurkat cells clone E6-1, thapsigargin 100 nM, 10 min preincubation. On the procedure:
Jurkat cells (clone E6-1) are pelleted by centrifugation, washed twice, and resuspended in RPMI 1640 containing, […], 1 % fetal calf serum, 3 μM Fluo-3-AM, 13.5 μl/ml Pluronic F 127 (Molecular Probes) and incubated for 1 hour at 37° C. The loaded cells are washed twice in Hanks Balanced Salt Solution containing 10 mM HEPES. The cells are resuspended in HBSS containing 10 mM HEPES, and dispensed into 96-well Dynatech black microtiter plates at 2×10^5 cells/well. The cells are preincubated with compounds for 10 minutes at room temperature. Baseline fluorescence of unstimulated cells is measured using an SLT fluorescent microtiter plate reader with an excitation wavelength of 495 nm and emission wavelength of 538 nm. Thapsigargin is then added to a final concentration of 100 nM. Following a 5 minute incubation, fluorescence of thapsigargin treated cells is measured. Delta fluorescence values are determined by subtracting baseline fluorescence values from thapsigargin induced fluorescence values.

Test [2] deals with IL-2 production in T lymphocytes (CD3+/CD4+ cells). In words: IL-2 production assay, Protocol B (antiCD3/antiCD28 as stimuli). The note with it: T-lymphocyte; human T lymphocytes, anti-CD3/anti-CD28 and goat anti-mouse coated beads, 16 hour. On the procedure:
Protocol B (antiCD3/antiCD28 as stimuli)
Human peripheral blood is obtained from healthy donors by venipuncture and the mononuclear cell fraction is prepared by centrifugation on Ficoll Hypaque (Phamacia) density gradients. Contaminating red blood cells are lysed and the CD3+/CD4+ cells are purified using immunoaffinity columns (R&D Systems or CellPro). The T lymphocytes are plated at 1-1.5×10^5 cells/well in a 96 well microtiter plate, and incubated with serial dilutions of compounds for 20 minutes at 37° C. The T cells are activated by the addition of 0.6 ng/ml anti-CD3 (Immunotech), 500 ng/ml anti-CD28 (Biodesign) and 2×10^5 goat anti-mouse coated beads (Dynal). The final volume of the assay is 200 μl. Following a 16 hour incubation at 37° C., the cells are pelleted, and the supernatants are removed and collected and stored at -70° C. until assayed for interleukin-2 using a commercial ELISA kit (R&D Systems).

For test [3], the system named is IL-2 production in CD3+/CD4+ cells. The test is described as follows: IL-2 production assay, Protocol A (ionomycin and PMA as stimuli). Particulars: human CD3+/CD4+ cells, ionomycin 1 μg/ml and PMA 10 ng/ml, 16 hr. As for the experimental part: Protocol A (ionomycin and […] as stimuli)
Human peripheral blood is obtained from healthy donors by venipuncture and the mononuclear cell fraction is prepared by centrifugation on Ficoll Hypaque (Phamacia) density gradients. Contaminating red blood cells are lysed and the CD3+/CD4+ cells are purified using immunoaffinity columns (R&D Systems or CellPro). The cells are resuspended and dispensed in 96 well microtiter plates. Test compounds are added to the cells approximately 15 minutes prior to stimulation with ionomycin (1 μg/ml) and PMA (10 ng/ml). The final volume of the assay is 100 μL. Following a 16 hr incubation at 37° C., the cells are pelleted by centrifugation, and the supernatants are collected and stored at -70° C. until assayed for IL-2 using a commercial ELISA kit (Genzyme).

For the next test, the system named is IL-2 promoter. The test is described as follows: IL-2 promoter assay (luciferase reporter in Jurkat cells). The note with it: Homo sapiens. An excerpt:
All the known regulatory features of IL-2 gene are contained within a ~300 bp sequence immediately upstream of the open reading frame. […] The resulting construct, pIL2P-luc, and a vector containing a neomycin resistance gene, pcDNA/Neo (Invitrogen), are linearized and stably transfected into Jurkat cells (a human T cell line) by electroporation.
For screening compounds, the cells are pelleted by centrifugation, washed once with PBS, resuspended in RPMI (phenol red-free) containing 5% FBS, and dispensed into 96-well, white microtiter plates (Packard) at 50,000 cells/well. The cells are pre-incubated with compounds (1 μg/ml) for 15 min prior to addition of ionomycin (1 μg/ml) and PMA (10 ng/ml) in a final volume of 100 μl. Following a 5 hr incubation at 37° C. in a humidified incubator, 100 μl of Luc-Lite lysis buffer/luciferase assay buffer (Promega) is added and luminescence measured using a Packard TopCount scintillation counter/luminometer.
For orientation: Reporter assays use an easily measured gene product as a stand-in for the process of interest.

Like-named read-outs stand apart in the source and are kept apart here.

On to `Cc1noc(-c2cncc3[nH]c4ccccc4c23)n1` [Compound 43], for which the IC50 – broadly, the concentration needed to halve the response being measured – in test [1] is over 45 µM; in test [2] it was over 25 µM.
Regarding `CCCc1cncc2[nH]c3ccccc3c12` [Compound 3, 4-Propyl-β-carboline], the results for the IC50 in test [1], in test [3] and in test [2] were 17.2 µM, 38 µM and 21 µM, respectively.
For the compound `Cc1cnc(-c2cncc3[nH]c4ccccc4c23)s1` [Compound 41], the results for the 50% inhibitory concentration (IC50) in test [1] and in test [2] were 17.7 µM and over 25 µM, respectively.
The matching figures for `Clc1ccc(-c2cncc3[nH]c4ccccc4c23)cc1Cl` [Compound 32]: 1.5 µM and 8.9 µM.
For `CN(C)c1ccc(-c2cncc3[nH]c4ccccc4c23)cc1` [Compound 24], in that order: 1.6 µM and 0.17 µM.
For `O=C(c1ccccc1)c1ccc(-c2cncc3[nH]c4ccccc4c23)cc1` [Compound 25], the IC50 in test [1] stood at 7.7 µM.
For the compound `CCOC(=O)c1ccc(-c2cncc3[nH]c4ccccc4c23)cc1` [Compound 19], the IC50 was determined as 3.4 µM in test [1] and 6.3 µM in test [2].
For the compound `COc1ccc(-c2cncc3[nH]c4ccc(Cl)cc4c23)cc1` [Compound 6], the half-inhibitory concentration (IC50) is 14 µM in test [1]; 9.2 µM in test [3]; over 25 µM in test [2]; 3.2 µM in the test with IL-2 promoter (Jurkat luciferase reporter cells, ionomycin 1 μg/ml and PMA 10 ng/ml, 5 hr, read-out: IL-2 PROMOTER IC50).
On to `Cc1ccc(-c2cncc3[nH]c4cc(C)ccc4c23)cc1` [Compound 17], for which the IC50 worked out at 0.4 µM in test [1] and 4.2 µM in test [2].
As for `c1cncc(-c2cncc3[nH]c4ccccc4c23)c1` [Compound 14], the results for the IC50 in test [1], in test [3] and in test [2] were 29 µM, 36 µM and 22 µM, respectively.
On to `c1ccc(Cc2cncc3[nH]c4ccccc4c23)cc1` [Compound 37], for which the IC50 in test [1] is 2.2 µM; in test [2], over 25 µM.
The matching figures for `Cc1ccc(-c2cncc3[nH]c4ccccc4c23)c(C)c1` [Compound 30]: 1.7 µM and 5.9 µM.
`OCc1ccc(-c2cncc3[nH]c4ccccc4c23)cc1` [Compound 23]: in test [1], the IC50 was 15.2 µM.
With `Cc1ccc(-c2cncc3[nH]c4cc(CO)ccc4c23)cc1` [Compound 34], the IC50 in test [1] came to 2.4 µM; in test [2] it was 7.7 µM.
The matching figures for `Cc1ccc(-c2cncc3[nH]c4c(C)cccc4c23)cc1` [Compound 18]: 0.7 µM and 5.4 µM.
For `Cc1ccc(-c2cncc3[nH]c4cccc(C)c4c23)cc1` [Compound 15], in that order: 0.9 µM and 9 µM.
Take `COc1ccccc1-c1cncc2[nH]c3ccccc3c12` [Compound 11]: the IC50 in test [1] is 6.4 µM; in test [3], 3 µM; in test [2], 20 µM.
With `c1ccc2cc(-c3cncc4[nH]c5ccccc5c34)ccc2c1` [Compound 42], the figures for the IC50 in test [1] and in test [2] were 1.3 µM and 2.5 µM, respectively.
In the case of `COc1cc(OC)cc(-c2cncc3[nH]c4ccccc4c23)c1` [Compound 28], the IC50 in test [1] stood at 0.7 µM; in test [2], 4.8 µM.
The matching figures for `COC(=O)c1cccc2c1[nH]c1cncc(-c3ccc(C)cc3)c12` [Compound 36]: 3.3 µM and 17 µM.
For the compound `COc1ccc(-c2cncc3c2c2ccccc2n3C)cc1` [Compound 8], the IC50 is 2.2 µM in test [1], over 20 µM in test [3] and 7.4 µM in test [2].
For `Cc1ccnc(-c2cncc3[nH]c4ccccc4c23)c1` [Compound 40], the results for the IC50 in test [1] and in test [2] were 14.4 µM and over 25 µM, respectively.
For `C=CC[C@@H]1/C=C(\C)C[C@H](C)C[C@H](OC)[C@H]2O[C@@](O)(C(=O)C(=O)N3CCCC[C@H]3C(=O)O[C@H](/C(C)=C/[C@@H]3CC[C@@H](O)[C@H](OC)C3)[C@H](C)[C@@H](O)CC1=O)[C@H](C)C[C@@H]2OC` [FK506, reference compound], the IC50 with IL-2 promoter (Jurkat, read-out: inhibition of luciferase activity, IC50) turned out to be 0.0003 µM.
Take `COc1ccc(-c2cncc3[nH]c4ccccc4c23)c(OC)c1` [Compound 27]: the IC50 amounted to 1.3 µM in test [1] and 5.6 µM in test [2].
The matching figures for `c1ccc2c(c1)[nH]c1cncc(C3CCCCC3)c12` [Compound 38]: 2.2 µM and over 25 µM.
With `COc1ccc(-c2cncc3c2c2ccccc2n3Cc2ccccc2)cc1` [Compound 10], the IC50 in test [1] was 4.6 µM; in test [3] it was 27 µM; in test [2], over 25 µM.
As to `COc1ccc2c(c1)[nH]c1cncc(-c3ccc(C)cc3)c12` [Compound 22], the IC50 amounted to 1.7 µM in test [1] and 5.8 µM in test [2].
For `c1ccc(-c2cncc3[nH]c4ccccc4c23)cc1` [Compound 2, 4-Phenyl-β-carboline], the values for the IC50 in test [1] and in test [3] were 2.2 µM and 14 µM, respectively.
Consider `Cc1ccc(-c2cncc3[nH]c4ccc(C)cc4c23)cc1` [Compound 16], for which the figures for the IC50 in test [1] and in test [2] were 4.5 µM and over 25 µM, respectively.
As for `Oc1ccc(-c2cncc3[nH]c4ccccc4c23)cc1` [Compound 21], the IC50 in test [1] was 2.9 µM.
On to `COc1ccc(-c2cncc3[nH]c4ccccc4c23)cc1C` [Compound 33], for which the IC50 in test [1] came to 1 µM; in test [2], 5.3 µM.
For `COc1ccc(-c2cncc3[nH]c4ccccc4c23)cc1OC` [Compound 29], in that order: 2.7 µM and 1.6 µM.
As to `CC(C)c1ccc(-c2cncc3[nH]c4ccccc4c23)cc1` [Compound 20], the figures for the IC50 in test [1] and in test [2] were 0.3 µM and 1.1 µM, respectively.
For `COc1cc(-c2cncc3[nH]c4ccccc4c23)cc(OC)c1OC` [Compound 31], in that order: 3.3 µM and 2.8 µM.
Turning to `CC(C)c1noc(-c2cncc3[nH]c4ccccc4c23)n1` [Compound 44], the values for the IC50 in test [1] and in test [2] were 1.3 µM and under 10 µM, respectively.
For `Cn1c2ccccc2c2c(-c3ccc(C(F)(F)F)cc3)cncc21` [Compound 26], in that order: 2.5 µM and over 25 µM.
Turning to `COC(=O)c1ccc2c(c1)[nH]c1cncc(-c3ccc(C)cc3)c12` [Compound 35], the IC50 in test [1] is 0.7 µM.
`Clc1ccc(-c2cncc3[nH]c4ccccc4c23)cc1` [Compound 13]: the concentration for half-maximal inhibition (IC50) in test [1] worked out at 0.5 µM; in test [3] it was 0.8 µM; in test [2] it was 8.1 µM.
The matching figures for `Cc1cccc(-c2cncc3[nH]c4ccccc4c23)c1` [Compound 9]: 1.1 µM, 5 µM and over 25 µM.
`Cc1ccc(-c2cncc3[nH]c4ccccc4c23)s1` [Compound 39]: the figures for the IC50 in test [1] and in test [2] were 0.7 µM and 9.5 µM, respectively.

The values are drawn from patent publication US6093723A, “4-substituted beta-carbolines and analogs thereof” (Boehringer Ingelheim Pharmaceuticals, Inc., priority 1997, dated 2000).
